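Protocol summary: plate cells (96-well), add compound at 5 concentrations, incubate 48 h, interpolate endpoints linearly. Abbreviation: GI50, concentration required for 50% inhibition of growth.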 The source made the active and inactive calls. No stated cut-off is given here; in the data, active = GI50 up to about 1.1 µM and inactive = higher.
Key:
Assay in all cases: inhibition of tumour cell growth, NCI panel, 48 h
HL-60 = tested on: HL-60
NCI-H226 = tested on: NCI-H226
CAKI-1 = tested on: CAKI-1
ACHN = tested on: ACHN
TK-10 = tested on: TK-10
SF-268 = tested on: SF-268
SN12C = tested on: SN12C
BT-549 = tested on: BT-549
Hs-578T = tested on: Hs-578T
SK-OV-3 = tested on: SK-OV-3
OVCAR-8 = tested on: OVCAR-8
EKVX = tested on: EKVX
HCT-116 = tested on: HCT-116
HOP-92 = tested on: HOP-92
K562 = tested on: K562
LOX IMVI = tested on: LOX IMVI
NCI-H460 = tested on: NCI-H460
OVCAR-5 = tested on: OVCAR-5
SR = tested on: SR
HCC 2998 = tested on: HCC 2998

Measured: GI50

O=S(=O)(Nc1ccc2ccc3cccc4ccc1c2c34)c1ccccc1
inactive: HL-60 37.7 µM | NCI-H226 19.4 µM | CAKI-1 6 µM | ACHN 36.1 µM | TK-10 38.2 µM | SF-268 43.6 µM | SN12C 15 µM | BT-549 > 100 µM | Hs-578T 28.1 µM | SK-OV-3 58.3 µM | OVCAR-8 > 100 µM | EKVX > 100 µM | HCT-116 30.8 µM | HOP-92 4.84 µM | K562 6.7 µM | LOX IMVI 40.6 µM | NCI-H460 37.3 µM | OVCAR-5 > 100 µM | SR 2.67 µM

CC(=O)NC1C(OCc2ccccc2)OC(CO)C(O)C1OCC(=O)N[C@@H](C)C(=O)N[C@H](CCC(=O)NCCNCCNc1c2ccccc2nc2cccc([N+](=O)[O-])c12)C(N)=O (stereo partly specified)
inactive: HL-60 26.2 µM | CAKI-1 22.6 µM | ACHN 26.7 µM | TK-10 31.8 µM | SN12C 59.7 µM | BT-549 > 10 µM | Hs-578T 22.5 µM | SK-OV-3 78.5 µM | OVCAR-8 27.4 µM | EKVX 31.6 µM | HCT-116 19.5 µM | HOP-92 20.7 µM | HCC 2998 6.52 µM | K562 32.3 µM | LOX IMVI 23.5 µM | NCI-H460 15.1 µM | OVCAR-5 53.3 µM | SR 18.1 µM

O=S(=O)(/N=C1/S/C(=N\c2ccccc2)N(c2ccccc2)/C1=N/S(=O)(=O)c1ccccc1)c1ccccc1
inactive: HL-60 22.6 µM | NCI-H226 19.8 µM | ACHN 19.5 µM | TK-10 30.4 µM | SN12C 12.4 µM | BT-549 24.1 µM | Hs-578T 29.6 µM | OVCAR-8 22.8 µM | EKVX 21.5 µM | HCT-116 17.6 µM | HOP-92 13.6 µM | HCC 2998 20.9 µM | K562 23.9 µM | NCI-H460 21.3 µM | OVCAR-5 20.8 µM | SR 18.1 µM

CCOC(=O)c1cc2cc3c4c(c2oc1=O)CCCN4CCC3
inactive: HL-60 16.9 µM | NCI-H226 14.7 µM | CAKI-1 47.3 µM | ACHN 34 µM | TK-10 21.6 µM | SF-268 19.2 µM | SN12C 30.8 µM | BT-549 31.4 µM | Hs-578T 25 µM | OVCAR-8 22.1 µM | EKVX 12 µM | HCT-116 27 µM | HOP-92 17.1 µM | HCC 2998 78.9 µM | K562 38.3 µM | LOX IMVI 26.1 µM | NCI-H460 48.3 µM | OVCAR-5 > 100 µM | SR 22.8 µM

CC(N)(/C=C/c1ccccc1)C(=O)O (stereo unspecified)
inactive: HL-60 > 100 µM | NCI-H226 > 100 µM | CAKI-1 > 100 µM | ACHN > 100 µM | TK-10 > 100 µM | SF-268 > 100 µM | SN12C > 100 µM | BT-549 > 100 µM | Hs-578T 67.3 µM | SK-OV-3 > 100 µM | OVCAR-8 > 100 µM | EKVX > 100 µM | HCT-116 > 100 µM | HOP-92 > 100 µM | K562 > 100 µM | LOX IMVI > 100 µM | NCI-H460 > 100 µM | OVCAR-5 > 100 µM | SR > 100 µM

COc1cc(CNC(=O)CCCCCCCCCCSC#N)ccc1O
inactive: HL-60 5.69 µM | NCI-H226 18.1 µM | CAKI-1 18.2 µM | ACHN > 10 µM | TK-10 20.5 µM | BT-549 22.9 µM | Hs-578T 14.2 µM | SK-OV-3 10.6 µM | OVCAR-8 18.5 µM | EKVX 21.4 µM | HCT-116 14.9 µM | HOP-92 17.1 µM | HCC 2998 > 100 µM | K562 6.9 µM | LOX IMVI 12 µM | NCI-H460 13.3 µM | OVCAR-5 30.3 µM | SR 8.47 µM

C/C=C/COc1cc(NC(=S)c2ccoc2C)ccc1OC
inactive: HL-60 60.3 µM | NCI-H226 > 100 µM | CAKI-1 25.6 µM | TK-10 97.1 µM | SF-268 44.3 µM | SN12C 62.1 µM | BT-549 > 100 µM | Hs-578T 34 µM | SK-OV-3 61.1 µM | OVCAR-8 57.9 µM | EKVX 49.8 µM | HCT-116 > 100 µM | HOP-92 16.7 µM | HCC 2998 > 100 µM | LOX IMVI > 100 µM | OVCAR-5 > 100 µM | SR > 100 µM

CCC(CC)(CO)CNc1cc(Cl)nc(N)n1
inactive: HL-60 > 100 µM | NCI-H226 77.1 µM | CAKI-1 > 100 µM | ACHN > 100 µM | TK-10 > 100 µM | SF-268 55.6 µM | SN12C > 100 µM | BT-549 > 100 µM | Hs-578T > 100 µM | SK-OV-3 > 100 µM | OVCAR-8 > 100 µM | EKVX 79.3 µM | HCT-116 > 100 µM | HOP-92 11.3 µM | K562 > 100 µM | LOX IMVI > 100 µM | NCI-H460 > 100 µM | OVCAR-5 > 100 µM | SR > 100 µM

CN(C)CCCN1c2ccccc2C(C)(C)c2ccccc21 [DIMETACRINE]
inactive: HL-60 15.1 µM | NCI-H226 15.6 µM | CAKI-1 12.6 µM | ACHN 15.3 µM | TK-10 14.2 µM | SF-268 13.3 µM | SN12C 14.4 µM | BT-549 14.9 µM | Hs-578T 15.1 µM | SK-OV-3 13.9 µM | OVCAR-8 16.1 µM | EKVX 17.6 µM | HCT-116 14.8 µM | HOP-92 14.6 µM | K562 13.3 µM | LOX IMVI 15.1 µM | NCI-H460 13.6 µM | OVCAR-5 14.1 µM | SR 13.1 µM

Cc1ccc2nc(-c3ccccc3)cc(=O)n2c1
inactive: HL-60 > 100 µM | NCI-H226 64.6 µM | ACHN > 100 µM | TK-10 > 100 µM | SF-268 > 100 µM | SN12C > 100 µM | BT-549 > 100 µM | Hs-578T > 100 µM | SK-OV-3 > 100 µM | OVCAR-8 > 100 µM | EKVX 81.8 µM | HCT-116 > 100 µM | HOP-92 > 100 µM | HCC 2998 > 100 µM | K562 > 100 µM | NCI-H460 > 100 µM | OVCAR-5 > 100 µM | SR > 100 µM

CC1(C)C(=O)/C=C\C(=O)C(C)(C)C(=O)/C=C\C(=O)C(C)(C)C(=O)/C=C\C(=O)C(C)(C)C(=O)/C=C\C1=O
inactive: HL-60 3 µM | NCI-H226 > 63 µM | CAKI-1 12.6 µM | ACHN 26.8 µM | TK-10 > 55.2 µM | SF-268 > 45.9 µM | SN12C 24.3 µM | BT-549 > 10 µM | Hs-578T > 100 µM | SK-OV-3 > 70 µM | OVCAR-8 19.7 µM | EKVX 39.6 µM | HCT-116 15.7 µM | HOP-92 12.7 µM | K562 5.43 µM | LOX IMVI 25.2 µM | NCI-H460 56.6 µM | OVCAR-5 41.1 µM | SR 3.94 µM

CC1=NN(c2nc(N)nc(CS(C)(=O)=O)n2)C(C)(C)C1
inactive: HL-60 > 100 µM | CAKI-1 > 100 µM | ACHN > 100 µM | TK-10 > 100 µM | SF-268 > 100 µM | BT-549 > 100 µM | Hs-578T > 100 µM | SK-OV-3 > 100 µM | OVCAR-8 > 100 µM | EKVX > 100 µM | HCT-116 > 100 µM | HOP-92 > 100 µM | HCC 2998 > 100 µM | K562 > 100 µM | LOX IMVI > 100 µM | NCI-H460 > 100 µM | SR > 100 µM

O=Cc1c2n(c3ccccc13)N[C@@](Cc1ccc(O)cc1)(C(=O)O)C2
inactive: HL-60 47.1 µM | NCI-H226 > 100 µM | CAKI-1 > 100 µM | ACHN 62.7 µM | TK-10 > 100 µM | SF-268 36 µM | BT-549 > 100 µM | Hs-578T > 100 µM | SK-OV-3 77.3 µM | OVCAR-8 > 100 µM | EKVX > 100 µM | HCT-116 38.3 µM | HOP-92 > 100 µM | K562 97.3 µM | LOX IMVI 55.2 µM | OVCAR-5 > 100 µM | SR 38.1 µM

O=C(N/N=C/c1ccc([N+](=O)[O-])o1)c1ccc(C(=O)N/N=C/c2ccc([N+](=O)[O-])o2)cc1
inactive: HL-60 21.7 µM | NCI-H226 > 100 µM | CAKI-1 35.4 µM | ACHN 10.2 µM | SF-268 64.7 µM | SN12C 42.8 µM | BT-549 > 100 µM | Hs-578T > 100 µM | SK-OV-3 > 100 µM | OVCAR-8 28.4 µM | EKVX > 100 µM | HCT-116 30.1 µM | HOP-92 53.8 µM | K562 34.4 µM | LOX IMVI 34.2 µM | OVCAR-5 > 100 µM | SR 29.8 µM

N=C(/C=C/c1ccc(-c2cn3cc(/C=C/C(=N)N4CCCC4)ccc3n2)cc1)N1CCCC1
inactive: HL-60 > 100 µM | NCI-H226 > 100 µM | CAKI-1 > 100 µM | ACHN 68.9 µM | TK-10 > 100 µM | SF-268 > 100 µM | SN12C > 100 µM | BT-549 > 100 µM | Hs-578T 56.5 µM | SK-OV-3 > 100 µM | OVCAR-8 79.1 µM | EKVX > 100 µM | HCT-116 90.8 µM | HOP-92 > 100 µM | HCC 2998 > 100 µM | K562 > 100 µM | NCI-H460 81.3 µM | OVCAR-5 > 100 µM | SR > 100 µM

Reference: ChEMBL document CHEMBL1201862, “PubChem BioAssay data set” (2004)
